Measured values as given in patent publication US6787651B2, “Substituted indoles, pharmaceutical compounds containing such indoles and their use as PPAR-γ binding agents” (SmithKline Beecham Corporation, priority 2000, dated 2004).
pIC50: −log10 of the molar value. Like-named read-outs stand apart in the source and are kept apart here.

Key:
[1] = biological target: T1, PPARγ ligand binding domain (LBD) (amino acids 195-475) (Homo sapiens, UniProt P37231); experiment: PPAR-γ binding assay (spin plate / gel filtration binding assay, displacement of [3H]BRL 49653)
T1 construct: polyHis; made in house; host or cells: Escherichia coli
T1 sequence (P37231 195-475 isoform P37231-2): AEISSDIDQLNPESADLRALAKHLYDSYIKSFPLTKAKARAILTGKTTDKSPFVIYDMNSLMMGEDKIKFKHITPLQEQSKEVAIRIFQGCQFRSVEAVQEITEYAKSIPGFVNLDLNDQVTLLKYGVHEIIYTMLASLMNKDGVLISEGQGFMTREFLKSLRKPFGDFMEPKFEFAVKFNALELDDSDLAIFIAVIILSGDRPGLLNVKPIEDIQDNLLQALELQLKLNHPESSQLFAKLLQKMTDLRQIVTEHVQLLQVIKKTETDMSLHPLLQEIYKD
Description: The activity of a given compound in binding to PPAR-γ can be assayed routinely according to procedures known in the art. […] The PPAR-γ binding assay described below was used to determine the PPAR-γ binding activities of the compounds of the invention.
Compounds were tested for their ability to bind to PPARγ using a spin plate assay (gel filtration binding assay). […] Each compound was tested in triplicate. […] The plates were centrifuged (Beckman GS-6R) at 2500 rpm for 5 minutes, 170 μl Scitisafe® scintillation fluid (Fisher) was added to each well, the plates were sealed, and after 1 hour, were counted in a Wallac MicroBeta counter. The amount of nonspecific binding, as assessed by control wells containing 10 μM of the corresponding unlabeled ligand, was subtracted from each data point. For each compound tested, the data was averaged and plots of ligand concentration versus CPM of radioligand bound were constructed. Apparent IC50 values were estimated from nonlinear least-squares fit of the data assuming simple competitive binding.

[2] = read-out: IC50 range in the PPAR-γ Binding Assay

Row | SMILES | pIC50 [1, 2] | melting point | pIC50 [1]
1 | O=C(O)c1c(-c2cccc(OCC3CC3)c2)c2ccccc2n1Cc1ccc(F)cc1 [Example 339, 3-[3-(Cyclopropylmethoxy)phenyl]-1-[(4-fluorophenyl)methyl]indole-2-carboxylic Acid] | 8.00 to 10.00 | 200 to 202 °C | –
2 | CC(C)(C)c1ccc(-c2c(C(=O)O)n(Cc3cccc(OC4CCCC4)c3)c3ccccc23)cc1 [Example 289] | 8.00 to 10.00 | 159 °C | –
3 | COc1cccc(Cn2c(C(=O)O)c(-c3cccc(NC(=O)NC4CC4)c3)c3ccccc32)c1 [Example 294] | 5.00 to 8.00 | 110 °C (dec.) | –
4 | COc1ccc(Cc2c(C(=O)O)n(CC3CC3)c3ccccc23)cc1 [Example 230, 1-(Cyclopropylmethyl)-3-[(4-methoxyphenyl)methyl]indole-2-carboxylic acid] | 5.00 to 8.00 | 162 to 163 °C | –
5 | COc1ccc(C(=O)c2c(C(=O)O)n(Cc3cccc(C(F)(F)F)c3)c3ccccc23)cc1 [Example 242] | – | 215 to 216 °C | 5.00 to 8.00
6 | CC(C)(C)c1ccc(-c2c(C(=O)O)n(Cc3cccc(OCC4CC4)c3)c3ccccc23)cc1 [Example 288] | 8.00 to 10.00 | 120 °C | –
7 | CCOc1ccc(-c2c(C(=O)O)n(Cc3ccc(F)cc3)c3c(N(C)C(=O)C4CC4)cccc23)cc1 [Example 286] | 5.00 to 8.00 | 128 °C | –
8 | COc1cccc(Cn2c(C(=O)O)c(-c3ccc(C(C)(C)C)cc3)c3c(OCC4CC4)cccc32)c1 [Example 296] | 5.00 to 8.00 | 162 °C | –
9 | O=C(O)c1c(-c2ccc(OCC3CC3)cc2)c2ccccc2n1Cc1ccc(F)cc1 [Example 341] | 8.00 to 10.00 | 197 to 198 °C | –
10 | COc1cccc(Cn2c(C(=O)O)c(-c3ccc(C(C)(C)C)cc3)c3cc(NC(=O)C4CC4)ccc32)c1 [Example 268] | 8.00 to 10.00 | 194 to 196 °C | –
11 | O=C(O)c1c(CC2CC2)c2ccccc2n1Cc1cccc(C(F)(F)F)c1 [Example 264] | 8.00 to 10.00 | 174 to 175 °C | –
12 | COc1cccc(Cn2c(C(=O)O)c3c4cc(ccc42)OCCCCCCOc2cccc-3c2)c1 [Example 300] | 5.00 to 8.00 | 79 to 80 °C | –
13 | O=C(O)c1c(/C=C/c2ccccc2)c2ccccc2n1Cc1cccc(C(F)(F)F)c1 [Example 243] | 8.00 to 10.00 | 183 to 185 °C | –
14 | COc1cccc(Cn2c(C(=O)O)c(-c3ccc(C(C)(C)C)cc3)c3cc4c(cc32)OCO4)c1 [Example 277] | 8.00 to 10.00 | 179.1 to 179.7 °C | –
15 | COc1ccc(-c2c(C(=O)O)n(Cc3cccc(OCC4CC4)c3)c3ccccc23)cc1 [Example 287] | 8.00 to 10.00 | 168 °C | –
16 | COc1ccc(-c2c(C(=O)O)n(Cc3cccc(OC)c3)c3c(N(C)C(=O)C4CC4)cccc23)cc1 [Example 303] | 5.00 to 8.00 | 98 °C (dec.) | –
17 | COc1cccc(Cn2c(C(=O)O)c(-c3ccc(C(C)(C)C)cc3)c3cc(N(C)C(=O)C4CC4)ccc32)c1 [Example 274] | 5.00 to 8.00 | 219 to 222 °C | –
18 | COc1ccc(-c2c(C(=O)O)n(Cc3cccc(OC)c3)c3ccc(C(C)=O)cc23)cc1 [Example 301] | 5.00 to 8.00 | 190 °C (dec.) | –
19 | CC(=O)c1ccc(-c2c(C(=O)O)n(Cc3cccc(C(F)(F)F)c3)c3ccccc23)s1 [Example 236] | 8.00 to 10.00 | 212 to 214 °C | –

Row | SMILES | pIC50 [1, 2] | melting point | pIC50 [1]
20 | CCOc1ccc(-c2c(C(=O)O)n(Cc3ccc(F)cc3)c3ccc(COCC4CC4)cc23)cc1 [Example 347, 5-[(Cyclopropylmethoxy)methyl]-3-(4-ethoxyphenyl)-1-(4-fluorobenzyl)-1H-indole-2-carboxylic acid] | 8.00 to 10.00 | 171 to 173 °C | –
21 | O=C(O)c1c(-c2ccc(OCC3CC3)cc2)c2ccccc2n1Cc1cccc(OC(F)(F)F)c1 [Example 346] | 8.00 to 10.00 | 204 to 205 °C | –
22 | O=C(O)c1c(-c2cc3ccccc3o2)c2ccccc2n1Cc1cccc(C(F)(F)F)c1 [Example 235] | 8.00 to 10.00 | 211 to 214 °C | –
23 | CC(C)c1cccc(-c2c(C(=O)O)n(Cc3cccc(OCC4CC4)c3)c3ccccc23)c1 [Example 284] | 8.00 to 10.00 | 204 °C | –
24 | Cc1cccc(-c2c(C(=O)O)n(Cc3cccc(OCC4CC4)c3)c3ccccc23)c1 [Example 299] | 8.00 to 10.00 | 58 to 60 °C | –
25 | COc1cccc(Cn2c(C(=O)O)c(-c3ccc(C(C)(C)C)cc3)c3cc(NC(=O)NCC4CC4)ccc32)c1 [Example 270] | 5.00 to 8.00 | 141 to 142 °C | –
26 | COc1cccc(Cn2c(C(=O)O)c(-c3ccc(C(C)(C)C)cc3)c3cc(C4CCCC4)ccc32)c1 [Example 273] | 8.00 to 10.00 | 192 to 193 °C | –
27 | COc1cccc(Cn2c(C(=O)O)c(-c3ccc(C(C)(C)C)cc3)c3cccc(N(C)C(=O)N(C)C4CC4)c32)c1 [Example 293] | 5.00 to 8.00 | 112 to 115 °C (dec.) | –
28 | COc1cccc(Cn2c(C(=O)O)c(-c3ccc(C(C)(C)C)cc3)c3cc(NCC4CC4)ccc32)c1 [Example 335] | 8.00 to 10.00 | 180 to 181 °C | –
29 | COc1cccc(Cn2c(C(=O)O)c(-c3cccc(C(=O)NC4CCCC4)c3)c3ccccc32)c1 [Example 329] | 5.00 to 8.00 | 108 °C | –
30 | COc1cccc(Cn2c(C(=O)O)c(-c3ccc(C(=O)NC4CC4)cc3)c3ccccc32)c1 [Example 323, 3-[4-(N-cyclopropylcarbamoyl)phenyl]-1-[(3-methoxyphenyl)methyl]indole-2-carboxylic acid] | 5.00 to 8.00 | 237 °C | –
31 | COc1cccc(Cn2c(C(=O)O)c(-c3ccc(C(=O)NC4CCCC4)cc3)c3ccccc32)c1 [Example 324] | 5.00 to 8.00 | 230 °C | –
32 | O=C(O)c1c(C#Cc2ccccc2)c2ccccc2n1Cc1cccc(C(F)(F)F)c1 [Example 244] | 8.00 to 10.00 | 165 to 167 °C | –
33 | COc1ccc(-c2c(C(=O)O)n(CS(=O)(=O)c3ccccc3)c3ccccc23)cc1 [Example 282] | 5.00 to 8.00 | 166 to 168 °C | –
34 | COc1cccc(Cn2c(C(=O)O)c(-c3ccc(C(C)(C)C)cc3)c3cccc(NC(=O)NC4CC4)c32)c1 [Example 291] | 5.00 to 8.00 | 168 °C (dec.) | –
35 | COc1cccc(Cn2c(C(=O)O)c(-c3cccc(N(C)C(=O)C4CC4)c3)c3ccccc32)c1 [Example 295] | 5.00 to 8.00 | 200 °C | –
36 | COc1cccc(Cn2c(C(=O)O)c(-c3cccc(OCC4CC4)c3)c3ccccc32)c1 [Example 345] | 8.00 to 10.00 | 147 to 148 °C | –
37 | COc1ccc(Cc2c(C(=O)O)n(Cc3cccc(OCC4CC4)c3)c3ccccc23)cc1 [Example 297] | 8.00 to 10.00 | 168 to 170 °C | –
38 | COc1cccc(Cn2c(C(=O)O)c(-c3ccc(C(C)(C)C)cc3)c3cccc(NC(=O)C4CC4)c32)c1 [Example 292] | 5.00 to 8.00 | 151 °C | –
